Patent US20070178458A1, “Methods of diagnosis and prognosis of ovarian cancer II” (priority 2003, published 2007)

Tests used:
KIAA1983 mRNA expression = test: Change in KIAA1983 expression after treatment with methyl transferase inhibitor, quantitative RT-PCR; assay type: cell-based, human; conditions: 1 μM for 72 hours, relative to GAPDH
Experimental: (§1) FIG. 5 is a graphical representation showing the change In expression of KIAA1983 in epithelial ovarian cancer cell lines following treatment with the methyl transferase inhibitor 5-AZA (1 μM) for 72 hours, as determined by quantitative RT-PCR. The non-transformed cell line HOSE 6-3 was used as a control. Ovarian cancer cell lines were IGROV1, TOV21 G, OV90 and CAOV3. The relative amount of KIAA1983 mRNA in each cell line before (filled) and after (unfilled) treatment with methylation inhibitor was determined by comparison to a standard housekeeping gene (GAPDH), and is expressed as a fold change in expression level following treatment.
Total RNA was isolated from the normal and tumour cell lines, reverse transcribed into cDNA and used as template in a quantitative PCR using a LightCycler system (Roche Diagnostics). The relative amount of each gene product was determined by comparison to a standard housekeeping gene (GAPDH).
Thus, KIAA1983 is susceptible to gene silencing by hypermethylation thereby contributing to its reduced expression in epithelial ovarian cancers.

MGC1136 expression = test: Change in MGC1136 expression after treatment with methylation inhibitor, quantitative RT-PCR; assay type: cell-based, human; conditions: 1 μM for 72 hours, adjusted for GAPDH
Experimental: as §1
FIG. 9 is a graphical representation showing MGC1136 expression in IGROV, TOV21G and CaOV3 cells, in the presence (+) or absence (−) of the methylation inhibitor 5AZA (1 μM 5AZA for 72 hours). MGC1136 expression is represented as a relative fold change in expression in each cell line following treatment with 5AZA, and adjusted for the level of the housekeeping gene GAPDH. Experiments were performed as described in the legend for FIG. 5.
However, expression of MGC1136 is not increased in TOV21 G cells (clear cell ovarian cancer) following treatment with the methylation inhibitor 5AZA. Thus, loss of MGC1136 expression by methylation of the MGC1136 promoter may be restricted to particular histological phenotypes of epithelial ovarian cancer.

expression of KIAA1983 following treatment (KIAA1983 mRNA expression; normal ovarian cells (non-transformed HOSE 6-3 control)): note modulated
Structure (SMILES): Nc1ncn([C@H]2C[C@H](O)[C@@H](CO)O2)c(=O)n1 [5-AZA, 5-aza-2′deoxycytodine]
expression of KIAA1983 mRNA following treatment (KIAA1983 mRNA expression; epithelial ovarian cancer cell lines having reduced expression of KIAA1983 (IGROV1, TOV21G, OV90, CAOV3)): removes the block in expression of KIAA1983 mRNA | expression of MGC1136 following treatment (MGC1136 expression; CaOV3 cell line (serous epithelial ovarian cancer)): marked increase in expression of MGC1136 | expression of MGC1136 following treatment (MGC1136 expression; IGROV cell line (serous epithelial ovarian cancer)): marked increase in expression of MGC1136 | expression of MGC1136 following treatment (MGC1136 expression; TOV21 G cells (clear cell ovarian cancer)): not increased
